PubChem BioAssay (NCI)
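Step 1: Grow cells in 96-well plates. Step 2: Expose to compound for 48 hours at 5 concentrations. Step 3: Interpolate endpoints linearly; if unreached, use highest concentration. At the TGI there is no net growth.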

How the values were obtained:
Assay in all cases: NCI anticancer screen, dose series, 48 h
[1] = test system: TK-10 renal
[2] = test system: NCI-H226 lung
[3] = test system: RPMI-8226 leukemia
[4] = test system: SNB-75 CNS
[5] = test system: MDA-MB-435
[6] = test system: SF-539 CNS
[7] = test system: T-47D breast
[8] = test system: IGROV1 ovarian
[9] = test system: HCT-116 colon
[10] = test system: MDA-N
[11] = test system: HL-60(TB) leukemia
[12] = test system: SK-OV-3 ovarian
[13] = test system: 786-0 renal
[14] = test system: MDA-MB-231 breast
[15] = test system: ACHN renal
[16] = test system: OVCAR-3 ovarian
[17] = test system: NCI-H522 lung
[18] = test system: CCRF-CEM leukemia
[19] = test system: RXF 393 renal
[20] = test system: KM12 colon
[21] = test system: HS 578T breast
[22] = test system: HOP-92 NSCLC
[23] = test system: SNB-19 CNS
[24] = test system: SK-MEL-5 melanoma
[25] = test system: U251 CNS
[26] = test system: LOX IMVI melanoma
[27] = test system: A549 NSCLC
[28] = test system: BT-549 breast
[29] = test system: MALME-3M melanoma
[30] = test system: HOP-62 NSCLC
[31] = test system: UACC-257 melanoma
[32] = test system: HCC-2998 colon
[33] = test system: CAKI-1 renal
[34] = test system: SK-MEL-2 melanoma
[35] = test system: SF-295 CNS
[36] = test system: DU-145 prostate
[37] = test system: UO-31 renal
[38] = test system: OVCAR-4 ovarian
[39] = test system: K-562 leukemia
[40] = test system: HCT-15 colon
[41] = test system: NCI/ADR-RES ovarian
[42] = test system: M14 melanoma
[43] = test system: NCI-H460 lung
[44] = test system: UACC-62 melanoma
[45] = test system: MOLT-4 leukemia
[46] = test system: SF-268 CNS
[47] = test system: SN12C renal
[48] = test system: OVCAR-8 ovarian
[49] = test system: EKVX NSCLC
[50] = test system: HT29 colon
[51] = test system: A498 renal
[52] = test system: SK-MEL-28 melanoma
[53] = test system: OVCAR-5 ovarian
[54] = test system: NCI-H23 lung
[55] = test system: PC-3 prostate
[56] = test system: MCF7 breast
[57] = test system: COLO 205 colon
[58] = test system: SW-620 colon
[59] = test system: SR leukemia

Measured: TGI

C[n+]1cccc(/C=C/c2ccc3cccc(O)c3n2)c1
92.6 µM: [17]
93.5 µM: [29]
82.3 µM: [11]
> 100 µM: all other assays above

O=c1oc2ccccc2cc1-c1nnc(-c2ccccc2)s1
46.3 µM: [14]
> 66.3 µM: [8]
3.5 µM: [11]
> 84.7 µM: [23]
> 71 µM: [35]
> 78.1 µM: [10]
> 58.5 µM: [16]
> 69.4 µM: [48]
12.9 µM: [5]
> 85.2 µM: [7]
> 36.8 µM: [59]
> 67.2 µM: [41]
> 54.6 µM: [19]
36.2 µM: [20]
> 53.8 µM: [1]
> 57.1 µM: [30]
> 41.8 µM: [6]
45.6 µM: [4]
> 90 µM: [12]
43.6 µM: [51]
26.4 µM: [25]
> 66.6 µM: [13]
> 100 µM: all other assays above

COc1ccc(-c2c3c(n(C4OC(CO)C(O)C(O)C4O)c(=S)c2C#N)CC(C)(C)CC3=O)cc1 (centres undefined)
not listed: [12] | [49] | [58]
> 100 µM: all other assays above

CC1(C)CCCCCCCCCC(C)(CCCO)C1=O (centres undefined)
24.4 µM: [37]
31.9 µM: [4] | [23]
31.7 µM: [15]
32.9 µM: [26]
30 µM: [10]
32.4 µM: [44]
37.9 µM: [21]
28.7 µM: [14]
28.9 µM: [34]
34.2 µM: [52]
26.6 µM: [50]
30.6 µM: [29]
31.6 µM: [28] | [33]
31.8 µM: [31] | [40]
28.8 µM: [27] | [53]
36.7 µM: [49]
34 µM: [5]
34.1 µM: [16] | [58]
84.8 µM: [3]
27 µM: [55]
29 µM: [38]
> 100 µM: [59]
29.3 µM: [7]
41.9 µM: [45]
31.1 µM: [56]
29.7 µM: [17]
45 µM: [11]
31 µM: [2] | [36]
31.2 µM: [9]
33.1 µM: [51]
35.8 µM: [48]
27.4 µM: [42]
31.3 µM: [24]
34.4 µM: [19]
33.7 µM: [32]
31.4 µM: [8] | [12]
33.6 µM: [43]
30.5 µM: [41]
30.1 µM: [57]
32.7 µM: [35]
33 µM: [20]
33.4 µM: [46]
29.1 µM: [54]
30.4 µM: [25]
73.7 µM: [39]
32.2 µM: [47]
30.7 µM: [13]
27.7 µM: [22]
92.4 µM: [18]
30.3 µM: [30]

CCOC(=O)c1cc(C2CCN(CC(C)CC)C2=S)c(C(=O)/C=C(/C)N)[nH]1 (centres undefined)
not listed: [17] | [22] | [27] | [32] | [38] | [52]
> 50 µM: all other assays above

CCOC(=O)C1=C(C)N(C)C(=S)NC1c1cccc(O)c1 (centres undefined)
87.9 µM: [28]
84 µM: [51]
75.1 µM: [22]
83.1 µM: [42]
52.4 µM: [19]
54.9 µM: [41]
64 µM: [11]
92.6 µM: [32]
34.9 µM: [5]
93.6 µM: [49]
33 µM: [10]
57.3 µM: [59]
72.1 µM: [18]
97.2 µM: [34]
not listed: [29]
> 100 µM: all other assays above

Cn1cc2c(=O)n3ncn(-c4ccc(Br)cc4)c3nc2n1
not listed: [26] | [30]
> 100 µM: all other assays above
